Assay results published in patent US10227357B2, “Compounds and methods for kinase modulation, and indications therefor” (Plexxikon Inc., priority 2012, dated 2019).
Like-named read-outs stand apart in the source and are kept apart here.

Legend:
[1] = target: T1, c-kit kinase (Homo sapiens, UniProt P10721); assay: c-Kit biochemical assay, AlphaScreen, 10 μM ATP
T1 construct: The c-kit (or kinase domain thereof) is an active kinase in AlphaScreen; poly-Histidine tag (in-house protein only) (cleaved yes); host or cells: E. coli BL21(DE3)RIL, co-expressed with PTP1B
T1 sequence (P10721 26-976): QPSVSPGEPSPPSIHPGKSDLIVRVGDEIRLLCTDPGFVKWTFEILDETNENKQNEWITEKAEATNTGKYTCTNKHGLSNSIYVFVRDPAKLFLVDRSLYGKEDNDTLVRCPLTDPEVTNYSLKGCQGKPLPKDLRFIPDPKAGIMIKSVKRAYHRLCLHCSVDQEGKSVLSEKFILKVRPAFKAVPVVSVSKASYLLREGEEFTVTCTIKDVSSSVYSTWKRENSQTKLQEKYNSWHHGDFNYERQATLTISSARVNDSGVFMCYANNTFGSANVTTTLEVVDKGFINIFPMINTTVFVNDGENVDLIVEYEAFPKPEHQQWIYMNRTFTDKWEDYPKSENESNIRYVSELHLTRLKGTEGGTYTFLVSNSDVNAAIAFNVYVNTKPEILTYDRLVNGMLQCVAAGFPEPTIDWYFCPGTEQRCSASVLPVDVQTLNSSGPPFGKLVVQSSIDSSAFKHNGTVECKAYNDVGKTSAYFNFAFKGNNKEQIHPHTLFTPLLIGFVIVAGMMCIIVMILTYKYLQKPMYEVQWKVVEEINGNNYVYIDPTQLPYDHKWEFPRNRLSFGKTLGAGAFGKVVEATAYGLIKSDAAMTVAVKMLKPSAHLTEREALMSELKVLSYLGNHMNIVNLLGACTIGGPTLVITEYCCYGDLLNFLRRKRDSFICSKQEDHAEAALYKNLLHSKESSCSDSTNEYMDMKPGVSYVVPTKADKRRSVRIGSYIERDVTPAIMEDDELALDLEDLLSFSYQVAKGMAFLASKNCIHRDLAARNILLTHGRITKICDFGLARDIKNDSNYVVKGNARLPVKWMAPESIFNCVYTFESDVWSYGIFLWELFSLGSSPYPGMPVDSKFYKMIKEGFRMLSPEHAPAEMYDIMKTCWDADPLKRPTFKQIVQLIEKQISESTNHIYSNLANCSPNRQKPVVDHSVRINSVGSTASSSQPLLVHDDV
Method in brief: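 His-tagged c-Kit expressed in E. coli with co-expressed PTP1B (dephosphorylated), tag removed; 0.1 ng per reaction with biotinylated-peptide substrate in 50 mM HEPES pH 7.2, 5 mM MgCl2, 5 mM MnCl2, 5% DMSO, 10 μM ATP, 1 h at room temperature. Phosphorylation detected by AlphaScreen (streptavidin donor, PY20 acceptor beads); IC50 from 8-point 1:3 dilution series.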

[2] = target: T2, c-kit mutant D816V (Homo sapiens, UniProt P10721, D816V/DEL694-753); assay: c-Kit mutant D816V biochemical assay, AlphaScreen
T2 construct: residues 551-934, kinase insertion domain residues 694-753 deleted; 6x-histidine (N); made in house; host or cells: E. coli Arctic Express (DE3) RIL (Stratagene)
T2 sequence (P10721 with tags, fused parts or gaps DEL694-753/D816V): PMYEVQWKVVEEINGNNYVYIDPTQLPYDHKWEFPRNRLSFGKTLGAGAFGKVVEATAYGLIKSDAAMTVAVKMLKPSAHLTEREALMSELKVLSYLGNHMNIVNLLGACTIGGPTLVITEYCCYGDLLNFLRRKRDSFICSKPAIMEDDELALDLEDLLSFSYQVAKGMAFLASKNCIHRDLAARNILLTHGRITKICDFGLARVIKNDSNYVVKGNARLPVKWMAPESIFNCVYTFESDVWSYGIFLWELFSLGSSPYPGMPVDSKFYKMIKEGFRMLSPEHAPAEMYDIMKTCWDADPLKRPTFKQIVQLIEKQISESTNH
Method in brief: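 Eight-point, threefold compound series incubated 30 min at room temperature with E. coli-produced D816V kinase, 10 μM ATP, Mg2+/Mn2+ HEPES buffer pH 7.2 and 5% DMSO. After EDTA stop, streptavidin and anti-phosphotyrosine (PY20) AlphaScreen beads gave the read-out, and IC50 was fitted from the concentration–signal curve.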

[3] = c-kit biochemical inhibitory activity, read-out: Biochemical activity (IC50 μM) Kit
[4] = c-kit D816V biochemical inhibitory activity, read-out: Biochemical activity (IC50 μM) Kit D816V

| SMILES | IC50 [1, 3] [µM] | IC50 [2, 4] [µM] | IC50 [1] [µM] | IC50 ([2]; Biochemical activity (IC50 μM) Kit D816V) [µM] |
| --- | --- | --- | --- | --- |
| Cc1cc2c(-c3ccc(NS(=O)(=O)c4ccc(Cl)cc4F)c(F)c3)ncnc2[nH]1 [P-0361, 4-chloro-2-fluoro-N-[2-fluoro-4-(6-methyl-7H-pyrrolo[2,3-d]pyrimidin-4-yl)phenyl]benzenesulfonamide] | 0.0001 to 1 | 1 to 10 | – | – |
| O=S(=O)(Nc1ccc(-c2ncnc3[nH]c(-c4ccc(F)cc4)cc23)cc1)C1CC1 [P-0420, N-[4-[6-(4-fluorophenyl)-7H-pyrrolo[2,3-d]pyrimidin-4-yl]phenyl]cyclopropanesulfonamide] | 10 to 200 | 0.0001 to 1 | – | – |
| C[C@H](NC(=O)N1CCN(c2ncnc3[nH]c(-c4ccc(F)cc4)cc23)CC1)c1cccc(OC(F)F)c1 [P-0072, N-[(1S)-1-[3-(difluoromethoxy)phenyl]ethyl]-4-[6-(4-fluorophenyl)-7H-pyrrolo[2,3-d]pyrimidin-4-yl]piperazine-1-carboxamide] | 1 to 10 | 0.0001 to 1 | – | – |
| COc1cccc([C@H](C)NC(=O)N2CCN(c3ncnc4[nH]c(-c5ccc(Cl)cc5)cc34)C[C@H]2C)c1 [P-0024, (2R)-4-[6-(4-chlorophenyl)-7H-pyrrolo[2,3-d]pyrimidin-4-yl]-N-[(1S)-1-(3-methoxyphenyl)ethyl]-2-methyl-piperazine-1-carboxamide] | 1 to 10 | 0.0001 to 1 | – | – |
| CCS(=O)(=O)Nc1cccc(-c2ncnc3[nH]c(-c4ccc(F)cc4)cc23)c1 [P-0407, N-[3-[6-(4-fluorophenyl)-7H-pyrrolo[2,3-d]pyrimidin-4-yl]phenyl]ethanesulfonamide] | 1 to 10 | 1 to 10 | – | – |
| CCCCS(=O)(=O)Nc1ccc(-c2ncnc3[nH]c(-c4ccc(F)cc4)cc23)cc1 [P-0419, N-[4-[6-(4-fluorophenyl)-7H-pyrrolo[2,3-d]pyrimidin-4-yl]phenyl]butane-1-sulfonamide] | 10 to 200 | 0.0001 to 1 | – | – |
| Cc1cc2c(-c3ccc(NS(=O)(=O)c4ccc(Br)cc4)cc3)ncnc2[nH]1 [P-0318, 4-bromo-N-[4-(6-methyl-7H-pyrrolo[2,3-d]pyrimidin-4-yl)phenyl]benzenesulfonamide] | 1 to 10 | 1 to 10 | – | – |
| O=C(Nc1cccc(C(F)(F)F)c1)N1CCN(c2ncnc3[nH]c(-c4cccnc4)cc23)CC1 [P-0223, 4-[6-(3-pyridyl)-7H-pyrrolo[2,3-d]pyrimidin-4-yl]-N-[3-(trifluoromethyl)phenyl]piperazine-1-carboxamide] | 0.0001 to 1 | 0.0001 to 1 | – | – |
| CC(C)(C)OC(=O)N1CCN(c2ncnc3[nH]c(-c4cccnc4)cc23)CC1 [P-0232, tert-butyl 4-[6-(3-pyridyl)-7H-pyrrolo[2,3-d]pyrimidin-4-yl]piperazine-1-carboxylate] | 10 to 200 | 10 to 200 | – | – |
| O=C(NCc1ccc(Cl)cc1)N1CCN(c2ncnc3[nH]c(-c4ccc(Cl)cc4)cc23)CC1 [P-0212, N-[(4-chlorophenyl)methyl]-4-[6-(4-chlorophenyl)-7H-pyrrolo[2,3-d]pyrimidin-4-yl]piperazine-1-carboxamide] | 1 to 10 | 0.0001 to 1 | – | – |
| Cn1cc(-c2cc3c(N4CCN(C(=O)Nc5ccc(F)cc5)CC4)ncnc3[nH]2)cn1 [P-0096, N-(4-fluorophenyl)-4-[6-(1-methylpyrazol-4-yl)-7H-pyrrolo[2,3-d]pyrimidin-4-yl]piperazine-1-carboxamide] | 0.0001 to 1 | 0.0001 to 1 | – | – |
| Cc1cc2c(N3CCC(NS(=O)(=O)c4ccc(Cl)cc4)CC3)ncnc2[nH]1 [P-0728, 4-chloro-N-[1-(6-methyl-7H-pyrrolo[2,3-d]pyrimidin-4-yl)-4-piperidyl]benzenesulfonamide] | 0.0001 to 1 | 0.0001 to 1 | – | – |
| CS(=O)(=O)Nc1cccc(-c2ncnc3[nH]c(-c4ccc(F)cc4)cc23)c1 [P-0414, N-[3-[6-(4-fluorophenyl)-7H-pyrrolo[2,3-d]pyrimidin-4-yl]phenyl]methanesulfonamide] | 1 to 10 | 1 to 10 | – | – |
| Cn1cc(-c2cc3ncnc(-c4ccc(N)nc4)c3s2)cn1 [P-0621, 5-[6-(1-methylpyrazol-4-yl)thieno[3,2-d]pyrimidin-4-yl]pyridin-2-amine] | 1 to 10 | 1 to 10 | – | – |
| COc1cc2ncnc(-c3ccc(NS(=O)(=O)c4ccc(Cl)cc4)cc3F)c2cc1OC [P-0268, 4-chloro-N-[4-(6,7-dimethoxyquinazolin-4-yl)-3-fluoro-phenyl]benzenesulfonamide] | 1 to 10 | 0.0001 to 1 | – | – |
| C[C@H]1CN(c2ncnc3[nH]c(-c4ccncc4)cc23)CCN1C(=O)NCc1ccc(Cl)cc1 [P-0044, (2S)-N-[(4-chlorophenyl)methyl]-2-methyl-4-[6-(4-pyridyl)-7H-pyrrolo[2,3-d]pyrimidin-4-yl]piperazine-1-carboxamide] | 0.0001 to 1 | 0.0001 to 1 | – | – |
| C[C@H](NC(=O)N1CCN(c2ncnc3[nH]c(-c4ccncc4)cc23)C[C@H]1C)c1ccc(Cl)cc1 [P-0059, (2R)-N-[(1S)-1-(4-chlorophenyl)ethyl]-2-methyl-4-[6-(4-pyridyl)-7H-pyrrolo[2,3-d]pyrimidin-4-yl]piperazine-1-carboxamide] | 0.0001 to 1 | 0.0001 to 1 | – | – |
| O=C(NCc1ccc(F)cc1)N1CCN(c2ncnc3ccsc23)CC1 [P-0638, N-[(4-fluorophenyl)methyl]-4-thieno[3,2-d]pyrimidin-4-yl-piperazine-1-carboxamide] | 10 to 200 | 10 to 200 | – | – |
| CC1(C)C=C(c2cc3c(-c4ccc(NS(=O)(=O)c5ccc(F)cc5)cc4)ncnc3[nH]2)CC(C)(C)N1 [P-0295, 4-fluoro-N-[4-[6-(2,2,6,6-tetramethyl-1,3-dihydropyridin-4-yl)-7H-pyrrolo[2,3-d]pyrimidin-4-yl]phenyl]benzenesulfonamide] | 1 to 10 | 0.0001 to 1 | – | – |
| Cc1ccc(-c2cc3c(N4CCN(C(=O)N[C@@H](C)c5cccc(Cl)c5)C(C)(C)C4)ncnc3[nH]2)cn1 [P-0001, N-[(1S)-1-(3-chlorophenyl)ethyl]-2,2-dimethyl-4-[6-(6-methyl-3-pyridyl)-7H-pyrrolo[2,3-d]pyrimidin-4-yl]piperazine-1-carboxamide] | 1 to 10 | 0.0001 to 1 | – | – |
| Cn1cc(-c2cc3c(N4CCN(C(=O)Nc5ccc(OC(F)F)cc5)CC4)ncnc3[nH]2)cn1 [P-0091, N-[4-(difluoromethoxy)phenyl]-4-[6-(1-methylpyrazol-4-yl)-7H-pyrrolo[2,3-d]pyrimidin-4-yl]piperazine-1-carboxamide] | 0.0001 to 1 | 0.0001 to 1 | – | – |
| C[C@@H]1CN(c2ncnc3[nH]c(-c4ccncc4)cc23)CCN1C(=O)Nc1ccc(Cl)cc1 [P-0065, (2R)-N-(4-chlorophenyl)-2-methyl-4-[6-(4-pyridyl)-7H-pyrrolo[2,3-d]pyrimidin-4-yl]piperazine-1-carboxamide] | 0.0001 to 1 | 0.0001 to 1 | – | – |
| CCCCS(=O)(=O)Nc1ccc(-c2ncnc3[nH]c(C)cc23)cc1 [P-0288, N-[4-(6-methyl-7H-pyrrolo[2,3-d]pyrimidin-4-yl)phenyl]butane-1-sulfonamide] | – | – | 10 to 200 | 1 to 10 |
| Cc1nc(-c2cccc(NC(=O)N3CCN(c4ncnc5[nH]ccc45)CC3)c2)no1 [P-0151, N-[3-(5-methyl-1,2,4-oxadiazol-3-yl)phenyl]-4-(7H-pyrrolo[2,3-d]pyrimidin-4-yl)piperazine-1-carboxamide] | 10 to 200 | 10 to 200 | – | – |
